# Results reported in patent publication US6355799B1, “Substituted benzene compounds, process for their preparation, and herbicidal and defoliant compositions containing them” (ISK Americas Incorporated, priority 1997, dated 2002).
# Tests used:
# Assay type in all cases: in vivo
# [1] = tested on: field corn (Zea mays L., var. Dekalb 535, CORN); assay: Pre-emerge test, crop safety; settings: pre-emerge, 14 days after application, scale 0-100
# Procedure, shortened: (§1)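 Sandy loam pots; pre-emerge: sown 1 d pre-spray, surface-watered after, then bottom-watered. Post-emerge: sown 8–21 d before, 2–3 leaf stage, + 0.25% v/v NIS, bottom-watered. Acetone, 187 l/ha track spray, 15–1000 g ai/ha. 0–100 injury score, day 14.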
# [2] = tested on: upland rice (Oryza sp., var. Tebonnet, RICE); assay: Pre-emerge test, crop safety; settings: pre-emerge, 14 days after application, scale 0-100
# Procedure, shortened: as §1
# [3] = tested on: velvetleaf (Abutilon theophrasti, ABUTH); assay: Pre-emerge test, greenhouse herbicide activity screening; settings: pre-emerge, 14 days after application, scale 0-100
# Procedure, shortened: (§2)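 Plants grown in 10 cm pots of sandy loam mix received acetone-dissolved compounds through a moving flat-fan nozzle. Doses ranged from 15 to 1000 g ai/ha. Pre-emerge pots were seeded one day earlier, post-emerge pots 8–21 days earlier. Fourteen days on, each pot was graded 0–100 for damage.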
# [4] = tested on: large crabgrass (Digitaria sanguinalis, DIGSA); assay: as above; settings: pre-emerge, 14 days after application, scale 0-100
# Procedure, shortened: as §2
# [5] = tested on: barnyardgrass (Echinochloa crus-galli, ECHCG); assay: as above; settings: pre-emerge, 14 days after application, scale 0-100
# Procedure, shortened: as §2
# [6] = tested on: ivyleaf morningglory (Ipomoea hederacea, IPOHE); assay: as above; settings: pre-emerge, 14 days after application, scale 0-100
# Procedure, shortened: as §2
# [7] = tested on: sicklepod (Cassia obtusifolia, CASOB); assay: as above; settings: pre-emerge, 14 days after application, scale 0-100
# Procedure, shortened: as §2
# [8] = tested on: lambsquarters (Chenopodium album, CHEAL); assay: as above; settings: pre-emerge, 14 days after application, scale 0-100
# Procedure, shortened: as §2
# [9] = tested on: johnsongrass (Sorghum halepense, SORHA); assay: as above; settings: pre-emerge, 14 days after application, scale 0-100
# Procedure, shortened: as §2
# [10] = tested on: green foxtail (Setaria viridis, SETVI); assay: as above; settings: pre-emerge, 14 days after application, scale 0-100
# Procedure, shortened: as §2
# [11] = tested on: redroot pigweed (Amaranthus retroflexus, AMARE); assay: as above; settings: pre-emerge, 14 days after application, scale 0-100
# Procedure, shortened: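 Compounds in acetone were track-sprayed at 15-1000 g ai/ha (187 l/ha) on sandy loam pots: pre-emerge one day after seeding, post-emerge at 2-3 leaf stage with 0.25% v/v non-ionic surfactant. Phytotoxicity was rated 14 days later on a 0 (no damage) to 100 (complete death) scale.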
# [12] = tested on: velvetleaf (Abutilon theophrasti, ABUTH); assay: Post-emerge test, greenhouse herbicide activity screening; settings: post-emerge, 14 days after application, rating scale 0-100
# Source text: (§3) A standard greenhouse herbicide activity screening system was used to evaluate the herbicidal efficacy and crop safety of these test compounds. Seven broadleaf weed species including redroot pigweed (Amaranthus retroflexus, AMARE, velvetleaf (Abutilon theophrasti, ABUTH), sicklepod (Cassia obtusifolia, CASOB), ivyleaf morningglory (Ipomoea hederacea, IPOHE), lambsquarters (Chenopodium album, CHEAL), common ragweed (Ambrosia artemisizfolia L., AMBEL), and cocklebur (Xanthium strumarium, XANST) were used as test species. Four grass weed species including green foxtail (Setaria viridis, SETVI), barnyardgrass (Echinochloa crus-galli, ECHCG), johnsongrass (Sorghum halepense, SORHA), and large crabgrass (Digitaria sanguinalis, DIGSA) were also used. In addition, three crop species, field corn (Zea mays L., var. Dekalb 535, CORN), soybean (Glycine max L., var. Pella 86, SOY), and is upland rice (Oryza sp., var. Tebonnet, RICE) were included.
# (§4) All plants were grown in 10 cm square plastic pots which were filled with a sandy loam soil mix. For pre-emerge tests, seeds were planted one day prior to application of the test compounds. For post-emerge tests, seeds were planted 8-21 days prior to the test to allow emergence and good foliage development prior to application of the test substances. At the time of the post-emerge application, plants of all species were usually at the 2-3 leaf stage of development.
# (§5) All test compounds Were dissolved in acetone and applied to the test units in a volume of 187 l /ha. Test materials were applied at rates ranging from 15 g ai/ha to 1000 g ai/ha using a track sprayer equipped with a TJ8001E even flow flat fan spray nozzle. Plants were arranged on a shelf so that the top of the canopy (post-emerge) or top of the soil surface (pre-emerge) was 40-45 cm below the nozzle. Pressurized air was used to force the test solution through the nozzle as it was mechanically advanced (via electrically driven chain drive) over the top of all test plants/pots. This application simulates a typical commercial field herbicide application.
# (§6) In the post-emerge test, a commercial non-ionic surfactant was also included (0.25% v/v) to enhance wetting of the leaf surfaces of target plants. Immediately after application, test units of the pre-emerge applications were watered at the soil surface to incorporate the test materials. Subsequently, these test units were bottom-watered. Post-emerge test units were always bottom-watered.
# (§7) At 14 days after application of the test materials, phytotoxicity ratings were recorded. A rating scale of 0-100 was used as previously described in Research Methods in Weed Science, 2nd edition, B. Truelove, Ed., Southern Weed Science Society, Auburn University, Auburn, Ala. 1977. Briefly, “0” corresponds to no damage and “100” corresponds to complete death of all plants in the test unit. This scale was used both to determine efficacy against weed species and damage to crop species. Herbicide activity data for various compounds of this invention, which are shown by compound No. in Tables 1-8, are shown in Tables 11 and 12.
# [13] = tested on: large crabgrass (Digitaria sanguinalis, DIGSA); assay: as above; settings: post-emerge, 14 days after application, rating scale 0-100
# Source text: as §3, §4, §5, §6, §7
# [14] = tested on: barnyardgrass (Echinochloa crus-galli, ECHCG); assay: as above; settings: post-emerge, 14 days after application, rating scale 0-100
# Source text: as §3, §4, §5, §6, §7
# [15] = tested on: redroot pigweed (Amaranthus retroflexus, AMARE); assay: as above; settings: post-emerge, 14 days after application, rating scale 0-100
# Source text: as §3, §4, §5, §6, §7
# [16] = tested on: ivyleaf morningglory (Ipomoea hederacea, IPOHE); assay: as above; settings: post-emerge, 14 days after application, rating scale 0-100
# Source text: as §3, §4, §5, §6, §7
# [17] = tested on: sicklepod (Cassia obtusifolia, CASOB); assay: as above; settings: post-emerge, 14 days after application, rating scale 0-100
# Source text: as §3, §4, §5, §6, §7
# [18] = tested on: green foxtail (Setaria viridis, SETVI); assay: as above; settings: post-emerge, 14 days after application, rating scale 0-100
# Source text: as §3, §4, §5, §6, §7
# [19] = tested on: field corn (Zea mays L., var. Dekalb 535, CORN); assay: Post-emerge test, crop safety; settings: post-emerge, 14 days after application, rating scale 0-100
# Procedure, shortened: (§8)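 Each test used a mechanized track sprayer delivering 187 l/ha of acetone solution at 15–1000 g ai/ha. Post-emerge foliage at 2–3 leaves was treated with added 0.25% v/v non-ionic surfactant and bottom-watered only. Injury was assessed on day 14, where 100 means total kill.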
# [20] = tested on: upland rice (Oryza sp., var. Tebonnet, RICE); assay: Post-emerge test, crop safety; settings: post-emerge, 14 days after application, rating scale 0-100
# Procedure, shortened: as §8
Structure (SMILES),phytotoxicity rating CORN (crop damage) ([1]; 63 g ai/ha),phytotoxicity rating CORN (crop damage) ([1]; 250 g ai/ha),phytotoxicity rating RICE (crop damage) ([2]; 63 g ai/ha),phytotoxicity rating RICE (crop damage) ([2]; 250 g ai/ha),phytotoxicity rating ABUTH ([3]; 63 g ai/ha),phytotoxicity rating ABUTH ([3]; 250 g ai/ha),phytotoxicity rating DIGSA ([4]; 63 g ai/ha),phytotoxicity rating DIGSA ([4]; 250 g ai/ha),phytotoxicity rating ECHCG ([5]; 63 g ai/ha),phytotoxicity rating ECHCG ([5]; 250 g ai/ha),phytotoxicity rating IPOHE ([6]; 63 g ai/ha),phytotoxicity rating IPOHE ([6]; 250 g ai/ha),phytotoxicity rating CASOB ([7]; 63 g ai/ha),phytotoxicity rating CASOB ([7]; 250 g ai/ha),phytotoxicity rating CHEAL ([8]; 63 g ai/ha),phytotoxicity rating CHEAL ([8]; 250 g ai/ha),phytotoxicity rating SORHA ([9]; 63 g ai/ha),phytotoxicity rating SORHA ([9]; 250 g ai/ha),phytotoxicity rating SETVI ([10]; 63 g ai/ha),phytotoxicity rating SETVI ([10]; 250 g ai/ha),also measured
COc1ccc(-n2c(=O)cc(C(F)(F)F)n(C)c2=O)c(NC(=O)c2ccc3ccccc3c2)c1 [2-143],0,5,20,65,100,100,30,100,30,85,0,35,0,90,100,100,30,80,30,70,phytotoxicity rating AMARE ([11]; 63 g ai/ha): 100; phytotoxicity rating AMARE ([11]; 250 g ai/ha): 100; ABUTH phytotoxicity rating ([12]; 63 g ai/ha): 100; ABUTH phytotoxicity rating ([12]; 250 g ai/ha): 100; DIGSA phytotoxicity rating ([13]; 63 g ai/ha): 0; DIGSA phytotoxicity rating ([13]; 250 g ai/ha): 40; ECHCG phytotoxicity rating ([14]; 63 g ai/ha): 0; ECHCG phytotoxicity rating ([14]; 250 g ai/ha): 30; AMARE phytotoxicity rating ([15]; 63 g ai/ha): 100; AMARE phytotoxicity rating ([15]; 250 g ai/ha): 100; IPOHE phytotoxicity rating ([16]; 63 g ai/ha): 60; IPOHE phytotoxicity rating ([16]; 250 g ai/ha): 100; CASOB phytotoxicity rating ([17]; 63 g ai/ha): 70; CASOB phytotoxicity rating ([17]; 250 g ai/ha): 100; SETVI phytotoxicity rating ([18]; 63 g ai/ha): 0; SETVI phytotoxicity rating ([18]; 250 g ai/ha): 40; CORN phytotoxicity rating (crop damage) ([19]; 63 g ai/ha): 10; CORN phytotoxicity rating (crop damage) ([19]; 250 g ai/ha): 35; RICE phytotoxicity rating (crop damage) ([20]; 63 g ai/ha): 40; RICE phytotoxicity rating (crop damage) ([20]; 250 g ai/ha): 70
COc1c(Cl)cc(Cl)c(-n2c(=O)cc(C(F)(F)F)n(C)c2=O)c1NC(=O)c1ccc2ccccc2c1 [2-144],0,0,20,45,70,100,20,70,20,75,0,30,0,20,100,100,10,70,40,90,phytotoxicity rating AMARE ([11]; 63 g ai/ha): 99; phytotoxicity rating AMARE ([11]; 250 g ai/ha): 100; ABUTH phytotoxicity rating ([12]; 63 g ai/ha): 85; ABUTH phytotoxicity rating ([12]; 250 g ai/ha): 100; DIGSA phytotoxicity rating ([13]; 63 g ai/ha): 0; DIGSA phytotoxicity rating ([13]; 250 g ai/ha): 0; ECHCG phytotoxicity rating ([14]; 63 g ai/ha): 0; ECHCG phytotoxicity rating ([14]; 250 g ai/ha): 10; AMARE phytotoxicity rating ([15]; 63 g ai/ha): 75; AMARE phytotoxicity rating ([15]; 250 g ai/ha): 90; IPOHE phytotoxicity rating ([16]; 63 g ai/ha): 60; IPOHE phytotoxicity rating ([16]; 250 g ai/ha): 70; CASOB phytotoxicity rating ([17]; 63 g ai/ha): 60; CASOB phytotoxicity rating ([17]; 250 g ai/ha): 85; SETVI phytotoxicity rating ([18]; 63 g ai/ha): 0; SETVI phytotoxicity rating ([18]; 250 g ai/ha): 30; CORN phytotoxicity rating (crop damage) ([19]; 63 g ai/ha): 40; CORN phytotoxicity rating (crop damage) ([19]; 250 g ai/ha): 20; RICE phytotoxicity rating (crop damage) ([20]; 63 g ai/ha): 15; RICE phytotoxicity rating (crop damage) ([20]; 250 g ai/ha): 35
